Measurements as given in publication PMC12748375, “Insights into cannabinoid receptor 2 (CB2) anterograde trafficking and pharmacological chaperoning” (Cellular and Molecular Life Sciences: CMLS, 2025).

Key:
[1] = target: T1, hCB2 wt (Homo sapiens, UniProt P34972, K318E/K319E); assay: net surface expression, immunocytochemistry (Method B); assay type: cell-based; conditions: read-out: Method B: Net Surface Expression (3 h) / KK mutant / pEC50 (± SEM) (converted)
T1 construct: gene CNR2; full-length (63Q), N-terminal HA tag and three thrombin cleavage sites (HA-3TCS), pcDNA5/FRT, expressed in HEK Flp-in-293 cells

[2] = target: T2, hCB2 wt (Homo sapiens, UniProt P34972); assay: receptor internalisation, surface HA immunocytochemistry (Method A); assay type: cell-based; conditions: read-out: Method A: Internalisation (3 h) / CB2 wt / pEC50 (± SEM) (converted)
T2 construct: gene CNR2; full-length (63Q), N-terminal HA tag and three thrombin cleavage sites (HA-3TCS), pcDNA5/FRT, expressed in HEK Flp-in-293 cells
Source text: receptor internalisation, surface HA immunocytochemistry (Method A) on hCB2 wt

T2 sequence (P34972 whole entry): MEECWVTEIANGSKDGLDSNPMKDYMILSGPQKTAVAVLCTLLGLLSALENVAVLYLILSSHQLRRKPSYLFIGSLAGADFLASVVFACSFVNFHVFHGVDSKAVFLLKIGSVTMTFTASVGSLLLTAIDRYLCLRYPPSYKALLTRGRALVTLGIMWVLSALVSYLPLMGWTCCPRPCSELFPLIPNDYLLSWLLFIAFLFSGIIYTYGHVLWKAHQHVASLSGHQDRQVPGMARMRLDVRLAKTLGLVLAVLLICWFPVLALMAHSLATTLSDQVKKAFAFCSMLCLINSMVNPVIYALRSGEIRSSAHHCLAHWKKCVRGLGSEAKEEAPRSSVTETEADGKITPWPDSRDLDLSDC
T1 sequence (P34972 whole entry K318E/K319E): as the sequence (P34972 whole entry) above, with K318E, K319E counted along it

COc1ccc(C(=O)c2c(C)n(CCN3CCOCC3)c3cc(I)ccc23)cc1 [AM630] was tested, and the EC50 [1] was 513 nM.

CCCCC/C=C\C/C=C\C/C=C\C/C=C\CCCC(=O)OC(CO)CO [2-AG] gave an EC50 [2] of 741 nM.
